This passage reports IC50, ED50 and inhibition in vivo results from ChEMBL document CHEMBL1146692, “Highly potent PDE4 inhibitors with therapeutic potential” (Bioorg Med Chem Lett, 2004).

Usually IC50 stands for the concentration that gives 50% inhibition. A lower IC50 goes with higher potency. The inhibition in vivo is the relative decrease from the control value, in per cent. Read a high inhibition in vivo as a strong effect.

One assay has as its target Phosphodiesterase 4 (Homo sapiens, UniProt P27815+Q08499+Q07343+Q08493). Description: Inhibition of phosphodiesterase 4 (PDE4) prepared from human U937 cells. It is filed as cell-based. To be noted: u-937.
Assay [1] concerns Rattus norvegicus. Description: Inhibition of LPS-induced TNF-alpha production in rats 0.5 hr after peroral administration. To be noted: po, read-out: ID50 (the source's name). It counts as functional.
The subject of assay [2] is Rattus norvegicus. Description: Inhibition of LPS-induced TNF-alpha production in rats at 3 mg/kg peroral dose after 0.5 hr. It is filed as functional. To be noted: route oral.
For assay [3], the system named is Cavia porcellus. In words: Inhibition of SRS-A-mediated bronchoconstriction and airway microvascular leakage in sensitized guinea pigs at 0.5 mg/kg 1 hr after oral dose. To be noted: Lung, read-out: ID50 (the source's name). It counts as functional.
The species named for the next assay is Homo sapiens. In words: Inhibition of LPS-induced TNF-alpha production in human whole blood. It counts as functional, organism-based.
In assay [4] the test system is Rattus norvegicus. Description: Inhibition of gastric emptying in rats after peroral administration. It is filed as functional. To be noted: Stomach, po, read-out: ID50 (the source's name).
Assay [5] has as its system Rattus norvegicus. Description: Inhibition of LPS-induced TNF-alpha production in rats at 1 mg/kg peroral dose after 0.5 hr. It counts as functional. To be noted: route oral.
For assay [6], the system named is Cavia porcellus. In words: Inhibition of SRS-A-mediated bronchoconstriction and airway microvascular leakage in sensitized guinea pigs at 0.15 mg/kg 1 hr after oral dose. It is filed as functional. To be noted: Lung, read-out: ID50 (the source's name).

As to `COc1ccc(C2(C#N)CCN(CC(=O)NO)CC2)cc1OC1CCC1`, the IC50 against Phosphodiesterase 4 was 0.18 nM. Moreover, the ED50 with Rattus norvegicus [1] came to 0.03 mg/kg.
On Phosphodiesterase 4, `CCOc1ccc(C2(C#N)CCN(CC(=O)O)CC2)cc1OC1CCCC1` showed an IC50 of 2500 nM.
Take `CC(C)Oc1ccc(C2(C#N)CCN(CC(=O)NO)CC2)cc1OC1CCCC1`: the 50% inhibitory concentration (IC50) against Phosphodiesterase 4 is listed as over 30 nM.
In turn, `COc1ccc(C2(C#N)CCN([C@H](C)C(=O)NO)CC2)cc1OC1CCCC1` displayed an IC50 on Phosphodiesterase 4 of 0.91 nM. The compound further registered an inhibition in vivo at 3 mg/kg in the assay on Rattus norvegicus [2] of 26%.
On Phosphodiesterase 4, `COc1ccc(C2(C#N)CCN([C@H](C)C(=O)O)CC2)cc1OC1CCCC1` registered a concentration for half-maximal inhibition (IC50) of over 300 nM.
The same measure, in the same setting: in the case of `COc1ccc(C2(C#N)CCN(CC(=O)O)CC2)cc1OC1CCC1` it was over 100 nM.
Turning to `COc1ccc(C2(C#N)CCN(CC(=O)O)CC2)cc1OC1CCCC1`, the IC50 against Phosphodiesterase 4 came out at 66 nM. 3 mg/kg produced 74% inhibition in vivo with Rattus norvegicus [2].
`CCOc1ccc(C2(C#N)CCN(CC(=O)NO)CC2)cc1OC1CCCC1` had an IC50 at Phosphodiesterase 4 of 6.2 nM. The ED50 with Rattus norvegicus [1] was determined as 0.7 mg/kg.
In the case of `CC(C)Oc1ccc(C2(C#N)CCN(CC(=O)O)CC2)cc1OC1CCCC1`, the IC50 against Phosphodiesterase 4 is recorded as over 1000 nM.
As to `N#CC1(c2ccc(OC(F)F)c(OC3CCCC3)c2)CCN(CC(=O)O)CC1`, the ED50 was 4.2 mg/kg in the assay with Cavia porcellus [3], 1.1 mg/kg in the assay on Rattus norvegicus [1] and 4.7 mg/kg in the assay on Rattus norvegicus [4]. Also, the values for the IC50 in the assay listed under Homo sapiens and against Phosphodiesterase 4 were 840 nM and 65 nM, respectively.
At Phosphodiesterase 4, `COc1ccc(C2(C#N)CCN(CC(=O)NO)CC2)cc1OC(C)C` returned an IC50 of 1 nM. For the same compound, the ED50 with Rattus norvegicus [1] was found to be 0.09 mg/kg.
In turn, `COc1ccc(C2(C#N)CCN(C(C)(C)C(=O)O)CC2)cc1OC1CCCC1` had an IC50 on Phosphodiesterase 4 of over 1000 nM.
Same read-out and setting: the same measure for `COc1ccc(C2(C#N)CCN(C3(C(=O)O)CC3)CC2)cc1OC1CCCC1`: over 1000 nM.
`COc1ccc(C2(C#N)CCN([C@@H](C)C(=O)NO)CC2)cc1OC1CCCC1` yielded an IC50 against Phosphodiesterase 4 of 5.9 nM. In the assay with Rattus norvegicus [2], the inhibition in vivo at 3 mg/kg came out at 49%.
`COc1ccc(C2(C#N)CCN([C@@H](C)C(=O)O)CC2)cc1OC1CCCC1` returned an IC50 against Phosphodiesterase 4 of over 300 nM.
With `COc1ccc(C2(C#N)CCN(CC(=O)O)CC2)cc1OCC1CC1`, the IC50 against Phosphodiesterase 4 is over 100 nM. Besides, at 1 mg/kg the inhibition in vivo in the assay with Rattus norvegicus [5] was 12%.
Take `COc1ccc(C2(C#N)CCN(CC(=O)O)CC2)cc1OC1Cc2ccccc2C1`: the IC50 against Phosphodiesterase 4 stood at 67 nM. In the assay on Rattus norvegicus [2], this compound came in with an inhibition in vivo at 3 mg/kg of 29%.
`COc1ccc(C2(C#N)CCN(C3(C(=O)NO)CC3)CC2)cc1OC1CCCC1` displayed a concentration for half-maximal inhibition (IC50) on Phosphodiesterase 4 of 4.6 nM. Moreover, in the assay on Rattus norvegicus [1], the ED50 was determined as 2 mg/kg.
`COc1ccc(C2(C#N)CCN(CC(=O)NO)CC2)cc1OCC1CC1`: the ED50 came to 0.3 mg/kg in the assay on Cavia porcellus [6], 0.03 mg/kg in the assay on Rattus norvegicus [1] and 0.3 mg/kg with Rattus norvegicus [4]. Further, the results for the IC50 in the assay filed under Homo sapiens and at Phosphodiesterase 4 were 2.1 nM and 0.29 nM, respectively.
With `CCOc1cc(C2(C#N)CCN(CC(=O)NO)CC2)ccc1OC`, the ED50 turned out to be 0.04 mg/kg with Cavia porcellus [6], 0.04 mg/kg in the assay on Rattus norvegicus [1] and 0.7 mg/kg in the assay with Rattus norvegicus [4]. Further, the values for the IC50 in the assay filed under Homo sapiens and at Phosphodiesterase 4 were 5 nM and 0.52 nM, respectively.
On Phosphodiesterase 4, `COc1ccc(C2(C#N)CCN(CC(=O)O)CC2)cc1OC(C)C` displayed an IC50 of over 100 nM.
In turn, `N#CC1(c2ccc(OC(F)F)c(OC3CCCC3)c2)CCN(CC(=O)NO)CC1` came in with an IC50 at Phosphodiesterase 4 of 0.051 nM. Further, the ED50 in the assay with Rattus norvegicus [1] came to 0.02 mg/kg.
As for `COc1ccc(C2(C#N)CCN(CC(=O)O)CC2)cc1OC`, the IC50 at Phosphodiesterase 4 is over 100 nM.
Take `COc1ccc(C2(C#N)CCN(C(C)(C)C(=O)NO)CC2)cc1OC1CCCC1`: at Phosphodiesterase 4, the IC50 was 34 nM.
In the case of `COc1ccc(C2(C#N)CCN(CC(=O)NO)CC2)cc1OC`, on Phosphodiesterase 4, the IC50 was determined as 4.7 nM. Besides, in the assay on Rattus norvegicus [1], the ED50 was 0.23 mg/kg.
In the case of `COc1ccc(C2(C#N)CCN(CC(=O)NO)CC2)cc1OC1CCCC1`, the ED50 stood at 0.3 mg/kg in the assay with Cavia porcellus [6], 0.04 mg/kg with Rattus norvegicus [1] and 0.3 mg/kg in the assay on Rattus norvegicus [4]. In addition, the half-inhibitory concentration (IC50) is 8.9 nM in the assay listed under Homo sapiens and 0.08 nM at Phosphodiesterase 4.
On Phosphodiesterase 4, `CCOc1cc(C2(C#N)CCN(CC(=O)O)CC2)ccc1OC` had an IC50 of over 100 nM. The inhibition in vivo at 1 mg/kg in the assay on Rattus norvegicus [5] is 0%.
`COc1ccc([C@]2(C#N)CC[C@@H](C(=O)O)CC2)cc1OC1CCCC1` [CILOMILAST]: the figures for the ED50 in the assay on Cavia porcellus [6], in the assay with Rattus norvegicus [1] and in the assay on Rattus norvegicus [4] were 4.5 mg/kg, 1.7 mg/kg and 5.7 mg/kg, respectively.
